Source: ChEMBL document CHEMBL4806966, “Methods for treating centronuclear myopathy” (2020)

Key:
Homo sapiens [1] = species: Homo sapiens; assay: Selectivity index, ratio of IC50 for human PIK3C2A to IC50 for human PIK3C2B
[2] = target: T1, Phosphatidylinositol 4-phosphate 3-kinase C2 domain-containing subunit alpha (Homo sapiens, UniProt O00443); assay: Inhibition of human PIK3C2A using phosphatidylinositol as substrate at 741 nM after 1 hr by TR-FRET based Adapta universal kinase assay relative to control
[3] = target: T1, Phosphatidylinositol 4-phosphate 3-kinase C2 domain-containing subunit alpha; assay: Inhibition of human PIK3C2A using phosphatidylinositol as substrate at 20000 nM after 1 hr by TR-FRET based Adapta universal kinase assay relative to control
[4] = target: T1, Phosphatidylinositol 4-phosphate 3-kinase C2 domain-containing subunit alpha; assay: Inhibition of human PIK3C2A using phosphatidylinositol as substrate at 3.03 nM after 1 hr by TR-FRET based Adapta universal kinase assay relative to control
[5] = target: T1, Phosphatidylinositol 4-phosphate 3-kinase C2 domain-containing subunit alpha; assay: Inhibition of human PIK3C2A using phosphatidylinositol as substrate at 82 nM after 1 hr by TR-FRET based Adapta universal kinase assay relative to control
[6] = target: Phosphatidylinositol 4-phosphate 3-kinase C2 domain-containing subunit beta (Homo sapiens) (UniProt O00750); assay: Inhibition of human PIK3C2B using phosphatidylinositol as substrate at 0.153 nM after 1 hr by TR-FRET based Adapta universal kinase assay
[7] = target: T1, Phosphatidylinositol 4-phosphate 3-kinase C2 domain-containing subunit alpha; assay: Inhibition of human PIK3C2A using phosphatidylinositol as substrate at 9.1 nM after 1 hr by TR-FRET based Adapta universal kinase assay relative to control
[8] = target: Phosphatidylinositol 4-phosphate 3-kinase C2 domain-containing subunit beta (Homo sapiens) (UniProt O00750); assay: Inhibition of human PIK3C2B using phosphatidylinositol as substrate at 1000 nM after 1 hr by TR-FRET based Adapta universal kinase assay
[9] = target: T1, Phosphatidylinositol 4-phosphate 3-kinase C2 domain-containing subunit alpha; assay: Inhibition of human PIK3C2A using phosphatidylinositol as substrate at 2222 nM after 1 hr by TR-FRET based Adapta universal kinase assay relative to control
[10] = target: Phosphatidylinositol 4-phosphate 3-kinase C2 domain-containing subunit beta (Homo sapiens) (UniProt O00750); assay: Inhibition of human PIK3C2B using phosphatidylinositol as substrate at 1.37 nM after 1 hr by TR-FRET based Adapta universal kinase assay
[11] = target: T1, Phosphatidylinositol 4-phosphate 3-kinase C2 domain-containing subunit alpha; assay: Inhibition of human PIK3C2A using phosphatidylinositol as substrate at 27.3 nM after 1 hr by TR-FRET based Adapta universal kinase assay relative to control
[12] = target: Phosphatidylinositol 4-phosphate 3-kinase C2 domain-containing subunit beta (Homo sapiens) (UniProt O00750); assay: Inhibition of human PIK3C2B using phosphatidylinositol as substrate at 4.1 nM after 1 hr by TR-FRET based Adapta universal kinase assay
[13] = target: T1, Phosphatidylinositol 4-phosphate 3-kinase C2 domain-containing subunit alpha; assay: Inhibition of human PIK3C2A using phosphatidylinositol as substrate at 6667 nM after 1 hr by TR-FRET based Adapta universal kinase assay relative to control
[14] = target: Phosphatidylinositol 4-phosphate 3-kinase C2 domain-containing subunit beta (Homo sapiens) (UniProt O00750); assay: Inhibition of human PIK3C2B using phosphatidylinositol as substrate at 12.3 nM after 1 hr by TR-FRET based Adapta universal kinase assay
[15] = target: Phosphatidylinositol 4-phosphate 3-kinase C2 domain-containing subunit beta (Homo sapiens) (UniProt O00750); assay: Inhibition of human PIK3C2B using phosphatidylinositol as substrate at 333 nM after 1 hr by TR-FRET based Adapta universal kinase assay
[16] = target: Phosphatidylinositol 4-phosphate 3-kinase C2 domain-containing subunit beta (Homo sapiens) (UniProt O00750); assay: Inhibition of human PIK3C2B using phosphatidylinositol as substrate at 0.051 nM after 1 hr by TR-FRET based Adapta universal kinase assay
[17] = target: Phosphatidylinositol 4-phosphate 3-kinase C2 domain-containing subunit beta (Homo sapiens) (UniProt O00750); assay: Inhibition of human PIK3C2B using phosphatidylinositol as substrate at 111 nM after 1 hr by TR-FRET based Adapta universal kinase assay
[18] = target: Phosphatidylinositol 4-phosphate 3-kinase C2 domain-containing subunit beta (Homo sapiens) (UniProt O00750); assay: Inhibition of human PIK3C2B using phosphatidylinositol as substrate at 37 nM after 1 hr by TR-FRET based Adapta universal kinase assay
[19] = target: T1, Phosphatidylinositol 4-phosphate 3-kinase C2 domain-containing subunit alpha; assay: Inhibition of human PIK3C2A using phosphatidylinositol as substrate and 10 uM ATP after 1 hr by TR-FRET based Adapta universal kinase assay
[20] = target: Phosphatidylinositol 4-phosphate 3-kinase C2 domain-containing subunit beta (Homo sapiens) (UniProt O00750); assay: Inhibition of human PIK3C2B using phosphatidylinositol as substrate at 0.46 nM after 1 hr by TR-FRET based Adapta universal kinase assay
[21] = target: T1, Phosphatidylinositol 4-phosphate 3-kinase C2 domain-containing subunit alpha; assay: Inhibition of human PIK3C2A using phosphatidylinositol as substrate at 247 nM after 1 hr by TR-FRET based Adapta universal kinase assay relative to control
Homo sapiens [22] = species: Homo sapiens; assay: Selectivity index, ratio of IC50 for human PIK3C2B to IC50 for PI3Kbeta (unknown origin)
[23] = target: Phosphatidylinositol 4,5-bisphosphate 3-kinase catalytic subunit beta isoform (Homo sapiens, UniProt P42338); assay: Inhibition of PI3Kbeta (unknown origin)
Sequence of Phosphatidylinositol 4,5-bisphosphate 3-kinase catalytic subunit beta isoform (P42338 whole entry, canonical isoform): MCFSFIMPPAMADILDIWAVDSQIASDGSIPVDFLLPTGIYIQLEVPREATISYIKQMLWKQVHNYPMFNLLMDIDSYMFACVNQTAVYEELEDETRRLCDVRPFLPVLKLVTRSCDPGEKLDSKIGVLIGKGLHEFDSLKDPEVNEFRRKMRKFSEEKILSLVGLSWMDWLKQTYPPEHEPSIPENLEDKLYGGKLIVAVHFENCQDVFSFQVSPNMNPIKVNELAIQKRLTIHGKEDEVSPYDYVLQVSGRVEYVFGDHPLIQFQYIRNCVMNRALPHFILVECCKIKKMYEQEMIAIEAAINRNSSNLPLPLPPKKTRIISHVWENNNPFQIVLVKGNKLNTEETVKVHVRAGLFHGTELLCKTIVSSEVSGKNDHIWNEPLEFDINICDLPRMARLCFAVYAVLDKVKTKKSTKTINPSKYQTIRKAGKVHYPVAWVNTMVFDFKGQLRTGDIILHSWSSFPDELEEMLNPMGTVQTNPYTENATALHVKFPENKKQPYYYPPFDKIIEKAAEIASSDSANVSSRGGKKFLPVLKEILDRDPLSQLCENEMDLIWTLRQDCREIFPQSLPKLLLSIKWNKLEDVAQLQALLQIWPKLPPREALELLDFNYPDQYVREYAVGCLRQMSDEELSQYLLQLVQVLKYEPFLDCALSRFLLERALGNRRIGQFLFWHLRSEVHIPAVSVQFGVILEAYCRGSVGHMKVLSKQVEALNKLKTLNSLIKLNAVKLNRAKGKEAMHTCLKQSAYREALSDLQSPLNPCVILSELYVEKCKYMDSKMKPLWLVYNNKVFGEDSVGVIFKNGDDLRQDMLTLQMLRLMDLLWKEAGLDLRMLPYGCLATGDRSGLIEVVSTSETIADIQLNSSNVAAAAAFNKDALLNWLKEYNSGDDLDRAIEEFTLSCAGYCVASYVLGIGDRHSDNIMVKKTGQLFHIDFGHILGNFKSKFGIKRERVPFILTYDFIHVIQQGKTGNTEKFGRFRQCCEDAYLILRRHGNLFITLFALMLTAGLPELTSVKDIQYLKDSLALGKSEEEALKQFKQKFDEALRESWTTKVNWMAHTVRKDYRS

T1 sequence (O00443 whole entry, the tested form may be a part): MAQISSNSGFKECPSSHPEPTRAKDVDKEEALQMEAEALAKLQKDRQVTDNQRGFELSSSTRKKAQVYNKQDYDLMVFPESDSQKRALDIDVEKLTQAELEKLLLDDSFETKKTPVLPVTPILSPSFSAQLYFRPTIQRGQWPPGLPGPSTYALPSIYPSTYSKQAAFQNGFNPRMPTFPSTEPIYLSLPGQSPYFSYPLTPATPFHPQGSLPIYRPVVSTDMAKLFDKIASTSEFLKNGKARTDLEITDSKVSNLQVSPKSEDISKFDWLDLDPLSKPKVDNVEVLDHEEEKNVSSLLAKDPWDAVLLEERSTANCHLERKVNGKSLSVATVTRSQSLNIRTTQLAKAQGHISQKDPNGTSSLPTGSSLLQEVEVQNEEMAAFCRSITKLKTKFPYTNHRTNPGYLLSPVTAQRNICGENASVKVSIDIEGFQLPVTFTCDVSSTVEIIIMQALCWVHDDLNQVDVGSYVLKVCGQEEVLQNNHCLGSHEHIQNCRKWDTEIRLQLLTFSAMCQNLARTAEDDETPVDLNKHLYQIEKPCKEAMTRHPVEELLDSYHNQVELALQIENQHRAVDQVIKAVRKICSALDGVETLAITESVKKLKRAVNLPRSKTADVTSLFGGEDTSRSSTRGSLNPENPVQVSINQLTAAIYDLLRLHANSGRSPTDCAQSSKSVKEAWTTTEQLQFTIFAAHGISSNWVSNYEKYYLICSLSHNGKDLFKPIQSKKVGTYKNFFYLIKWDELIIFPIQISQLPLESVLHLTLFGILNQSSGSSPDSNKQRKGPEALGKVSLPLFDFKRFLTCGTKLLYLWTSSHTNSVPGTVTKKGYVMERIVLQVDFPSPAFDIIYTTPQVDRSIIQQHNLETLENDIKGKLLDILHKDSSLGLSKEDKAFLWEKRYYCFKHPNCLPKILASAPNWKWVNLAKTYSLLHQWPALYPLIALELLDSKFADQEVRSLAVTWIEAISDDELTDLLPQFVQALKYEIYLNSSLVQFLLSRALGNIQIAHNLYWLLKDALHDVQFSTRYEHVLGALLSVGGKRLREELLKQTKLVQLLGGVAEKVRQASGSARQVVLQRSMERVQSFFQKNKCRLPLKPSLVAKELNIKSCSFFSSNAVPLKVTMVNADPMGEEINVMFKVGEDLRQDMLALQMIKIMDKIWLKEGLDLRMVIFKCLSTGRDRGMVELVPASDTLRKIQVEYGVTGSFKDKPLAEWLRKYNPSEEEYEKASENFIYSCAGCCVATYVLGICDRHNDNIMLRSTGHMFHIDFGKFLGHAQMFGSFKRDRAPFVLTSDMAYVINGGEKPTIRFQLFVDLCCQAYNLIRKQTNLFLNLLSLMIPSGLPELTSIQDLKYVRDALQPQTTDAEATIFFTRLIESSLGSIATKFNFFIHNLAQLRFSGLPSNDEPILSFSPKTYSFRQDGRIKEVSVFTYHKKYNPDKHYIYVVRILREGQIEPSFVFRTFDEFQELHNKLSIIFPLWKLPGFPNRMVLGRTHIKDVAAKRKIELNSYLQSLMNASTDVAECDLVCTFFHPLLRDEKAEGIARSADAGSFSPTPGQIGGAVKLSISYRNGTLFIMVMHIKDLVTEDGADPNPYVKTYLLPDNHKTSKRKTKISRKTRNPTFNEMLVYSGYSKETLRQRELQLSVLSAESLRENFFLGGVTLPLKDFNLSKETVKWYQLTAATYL
Sequence of Phosphatidylinositol 4-phosphate 3-kinase C2 domain-containing subunit beta (Homo sapiens) (O00750 whole entry, the tested form may be a part): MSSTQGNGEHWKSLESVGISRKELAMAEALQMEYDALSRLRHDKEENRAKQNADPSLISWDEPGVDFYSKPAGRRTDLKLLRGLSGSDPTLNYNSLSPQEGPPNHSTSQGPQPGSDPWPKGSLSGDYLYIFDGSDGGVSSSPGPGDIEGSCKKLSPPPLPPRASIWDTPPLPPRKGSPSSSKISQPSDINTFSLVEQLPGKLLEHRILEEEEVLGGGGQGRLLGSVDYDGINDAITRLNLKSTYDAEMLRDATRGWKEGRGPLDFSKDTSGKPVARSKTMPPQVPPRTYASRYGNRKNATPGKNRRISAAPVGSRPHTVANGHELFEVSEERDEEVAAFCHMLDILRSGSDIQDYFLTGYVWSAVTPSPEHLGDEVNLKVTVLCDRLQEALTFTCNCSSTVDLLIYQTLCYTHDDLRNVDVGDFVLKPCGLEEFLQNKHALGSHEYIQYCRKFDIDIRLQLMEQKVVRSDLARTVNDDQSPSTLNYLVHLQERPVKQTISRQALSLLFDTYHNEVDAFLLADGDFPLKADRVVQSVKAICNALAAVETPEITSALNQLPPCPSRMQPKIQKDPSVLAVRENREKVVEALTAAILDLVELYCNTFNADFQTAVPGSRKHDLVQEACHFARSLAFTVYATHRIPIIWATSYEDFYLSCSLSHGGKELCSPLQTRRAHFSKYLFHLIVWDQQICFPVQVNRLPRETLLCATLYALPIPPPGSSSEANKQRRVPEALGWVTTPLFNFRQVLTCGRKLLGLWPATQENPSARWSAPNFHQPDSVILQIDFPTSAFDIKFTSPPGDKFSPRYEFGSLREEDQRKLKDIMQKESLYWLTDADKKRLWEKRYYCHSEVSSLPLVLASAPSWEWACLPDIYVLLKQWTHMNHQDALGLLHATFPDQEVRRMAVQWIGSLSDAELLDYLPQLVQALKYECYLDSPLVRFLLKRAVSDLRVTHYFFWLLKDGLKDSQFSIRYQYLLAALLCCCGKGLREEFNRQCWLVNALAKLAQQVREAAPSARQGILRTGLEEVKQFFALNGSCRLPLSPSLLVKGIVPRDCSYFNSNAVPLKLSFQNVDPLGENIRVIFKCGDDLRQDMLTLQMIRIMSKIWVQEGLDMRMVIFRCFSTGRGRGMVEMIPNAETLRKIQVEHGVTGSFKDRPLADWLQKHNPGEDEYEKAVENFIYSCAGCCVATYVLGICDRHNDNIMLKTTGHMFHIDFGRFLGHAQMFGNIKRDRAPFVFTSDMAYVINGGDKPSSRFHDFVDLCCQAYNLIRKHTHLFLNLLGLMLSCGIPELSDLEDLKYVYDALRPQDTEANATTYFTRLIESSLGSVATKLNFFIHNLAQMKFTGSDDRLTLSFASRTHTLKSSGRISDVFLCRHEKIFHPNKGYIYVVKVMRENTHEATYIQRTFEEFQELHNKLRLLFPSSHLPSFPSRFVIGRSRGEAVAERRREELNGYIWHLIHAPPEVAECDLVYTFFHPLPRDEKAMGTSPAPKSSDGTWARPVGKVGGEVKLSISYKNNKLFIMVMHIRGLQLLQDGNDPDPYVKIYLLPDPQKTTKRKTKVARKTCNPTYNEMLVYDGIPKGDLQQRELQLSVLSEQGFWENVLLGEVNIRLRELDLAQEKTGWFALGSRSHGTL

## CN(C)C(=O)c1ccc2c(c1)c(C[C@H]1COCCN1c1nc3c(s1)C(=O)NC(C)(C)C3)cn2C
Homo sapiens [1]
  Ratio IC50: 449
[2]
  inhibition: 17%
[3]
  inhibition: 78%
[4]
  inhibition: -3%
[5]
  inhibition: 0%
[6]
  inhibition: -3%
[7]
  inhibition: -3%
[8]
  inhibition: 93%
[9]
  inhibition: 36%
[10]
  inhibition: 21%
[11]
  inhibition: -4%
[12]
  inhibition: 27%
[13]
  inhibition: 46%
[14]
  inhibition: 49%
[15]
  inhibition: 93%
[16]
  inhibition: 16%
[17]
  inhibition: 90%
[18]
  inhibition: 74%
[19]
  IC50: 9.57 µM
[20]
  inhibition: 10%
[21]
  inhibition: 6%

## Cc1c(Cn2c(C)nc(=O)c3sc(N4CCOCC4)nc32)cccc1C(F)(F)F
Homo sapiens [22]
  Ratio IC50: 6
[23]
  IC50: 0.016 µM
